From patent US9518038B2, “Condensation product of theanine derivative and carboxylic acid coumarin derivative, its intermediate, preparation method and use thereof” (SHANDONG YINGDONG YINGHAO BIOTECHNOLOGY, INC., priority 2012, dated 2016)
Marks after values point to notes of the source that are not given here.

How the values were obtained:
[1] = system: NF-κB; experiment: Western Blotting, NF-κB level; type: cell-based; conditions: human liver cancer cells, Lewis lung cancer cells and other cancer cell lines and tumor tissues, read-out: Effective concentration (IC50) for inhibition of NF-κB
Description: (§1) Antibodies: primary antibodies of VEGFR, EGFR, c-Met, K-Ras, H-Ras, Akt, NF-κB, Cyclin D1, ER-alpha, Dvl-1, Dvl-2, Dvl-3, MMP-9, MMP2, β-catenin, Bcl-2, Bax, p53, p21, E-cadherin and Caspase3 protein, purchased from American Cell Signaling Technology Company and Santa Cruz Technology Company; and H3 acetylation, H4 acetylation and HDAC (HDAC3, HDAC4 and the like) Antibody Sample Kits, purchased from Cell Signaling Technology Company of the U.S.
(§2) (3) polyacrylamide gel electrophoresis (SDS-PAGE): an equal amount of protein lysate sample was used to separate protein, film transfer, and blocking, treated with appropriate primary antibodies and secondary antibodies in sequence, and the film was washed, then the color was developed with ECL kit, and a blot protein band was detected by exposure of an X-ray film; and a Gel-Pro Analyzer was used for quantitative analysis of gray degree, optical density value of the control group and the drug treatment group in various concentration were respectively compared with that of internal reference, the obtained ratios were respectively compared with the control group, and the protein expression level was semi-quantified.

[2] = system: MMP-9; experiment: Western Blotting, MMP9 level; type: cell-based; conditions: human liver cancer cells, Lewis lung cancer cells and other cancer cell lines and tumor tissues, read-out: Effective concentration (IC50) for inhibition of MMP9
Description: as §1, §2

[3] = system: ER-alpha; experiment: Western Blotting, ER-alpha level; type: cell-based; conditions: human liver cancer cells, Lewis lung cancer cells and other cancer cell lines and tumor tissues, read-out: Effective concentration (IC50) for inhibition of ER-alpha
Description: as §1, §2

[4] = system: Dvl-3; experiment: Western Blotting, Dvl-3 level; type: cell-based; conditions: human liver cancer cells, Lewis lung cancer cells and other cancer cell lines and tumor tissues, read-out: Effective concentration (IC50) for inhibition of DVl-3
Description: as §1, §2

[5] = system: MMP-2; experiment: Western Blotting, MMP2 level; type: cell-based; conditions: human liver cancer cells, Lewis lung cancer cells and other cancer cell lines and tumor tissues, read-out: Effective concentration (IC50) for inhibition of MMP2
Description: as §1, §2

[6] = system: Dvl-2; experiment: Western Blotting, Dvl-2 level; type: cell-based; conditions: human liver cancer cells, Lewis lung cancer cells and other cancer cell lines and tumor tissues, read-out: Effective concentration (IC50) for inhibition of Dvl-2
Description: as §1, §2

[7] = system: HDAC4; experiment: HDAC4 enzyme activity in nuclear extracts of LLC tumors of treated mice; conditions: LLC tumor grown in vivo; second value of the pair HDAC3 and HDAC4; SAHA 25 mg/kg
Description: (§3) For the detection of the effect of the drugs on enzyme activity of EZH2 and HDAC of in-vivo tumors, the tumors were separately excised after 6 h of medication, total proteins and nucleoproteins were extracted separately to detect and analyze the activity of the enzyme.
(§4) (2) 50 μl of diluted sample solution was added into each reaction well, the plate was sealed with a plate-sealing film and reacted at room temperature for 30 min;
(§5) (3) the plate-sealing film was carefully peeled off, the liquid was removed, dried, 150 μl of washing liquid was added into each well, stood for 30 s, then the liquid was removed, repeated twice, and dried;
(§6) (4) 2 μl of HDAC enzyme or tumor tissue nuclear extracts was respectively uniformly mixed with 28 μl of diluted sample solution, added into the wells, the plate was sealed with the plate-sealing film and reacted at 37° C. for 60 min;
(§7) (5) the plate was washed for three times, wherein the operation was the same as that in (3); and a diluted antibody capture working solution was added into each reaction well according to 50 μl/well and reacted on a shaking bed at room temperature for 60 min; […]
(§8) (10) the light absorbance (OD value) of each well was measured in sequence at the wavelength of 450 nm; wherein the measurement should be performed within 15 min after addition of the stop solution; and

[8] = target: T1, EZH2 (Mus musculus, UniProt Q61188); experiment: EZH2 enzyme activity in protein extracts of LLC tumors of treated mice (EZH2 Assay Kit); conditions: LLC tumor grown in vivo; tumors excised 6 h after medication; SAHA 25 mg/kg
T1 construct: the EZH2 enzyme was replaced with tumor protein extracts in each group; from tissue; host or cells: Lewis lung cancer tumours from treated mice
T1 sequence (Q61188 whole entry): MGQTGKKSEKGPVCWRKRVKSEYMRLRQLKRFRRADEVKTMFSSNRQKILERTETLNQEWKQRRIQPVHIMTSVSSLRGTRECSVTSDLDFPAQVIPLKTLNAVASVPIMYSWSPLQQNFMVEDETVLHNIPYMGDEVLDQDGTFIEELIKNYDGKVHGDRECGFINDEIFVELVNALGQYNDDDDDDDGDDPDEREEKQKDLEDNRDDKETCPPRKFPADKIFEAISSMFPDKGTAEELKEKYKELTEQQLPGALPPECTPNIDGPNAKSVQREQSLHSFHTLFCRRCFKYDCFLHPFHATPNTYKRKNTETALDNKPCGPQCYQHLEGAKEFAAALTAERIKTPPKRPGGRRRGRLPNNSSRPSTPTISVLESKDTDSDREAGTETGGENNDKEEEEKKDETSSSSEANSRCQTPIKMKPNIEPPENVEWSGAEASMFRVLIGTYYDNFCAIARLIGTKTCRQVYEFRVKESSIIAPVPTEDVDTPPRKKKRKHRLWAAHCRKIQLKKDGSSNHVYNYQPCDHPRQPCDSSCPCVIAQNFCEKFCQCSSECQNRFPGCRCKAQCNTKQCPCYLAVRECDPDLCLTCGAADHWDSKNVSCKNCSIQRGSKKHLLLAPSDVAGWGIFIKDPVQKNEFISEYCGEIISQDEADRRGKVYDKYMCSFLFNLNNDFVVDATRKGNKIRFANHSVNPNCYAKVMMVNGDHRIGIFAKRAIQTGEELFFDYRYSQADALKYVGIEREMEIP
T1 sequence (Q921E6 whole entry partner): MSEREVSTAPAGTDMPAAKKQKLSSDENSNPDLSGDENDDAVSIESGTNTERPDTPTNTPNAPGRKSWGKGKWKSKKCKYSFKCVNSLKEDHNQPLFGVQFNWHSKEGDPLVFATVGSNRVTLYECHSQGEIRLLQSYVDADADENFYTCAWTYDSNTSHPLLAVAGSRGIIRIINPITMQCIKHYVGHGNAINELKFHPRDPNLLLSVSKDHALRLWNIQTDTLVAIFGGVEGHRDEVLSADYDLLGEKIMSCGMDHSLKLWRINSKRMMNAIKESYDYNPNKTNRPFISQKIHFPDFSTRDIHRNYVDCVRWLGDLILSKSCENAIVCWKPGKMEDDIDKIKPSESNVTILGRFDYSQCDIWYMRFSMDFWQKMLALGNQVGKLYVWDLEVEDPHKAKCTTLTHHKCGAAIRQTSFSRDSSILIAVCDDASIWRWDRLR
T1 sequence (Q80U70 whole entry partner): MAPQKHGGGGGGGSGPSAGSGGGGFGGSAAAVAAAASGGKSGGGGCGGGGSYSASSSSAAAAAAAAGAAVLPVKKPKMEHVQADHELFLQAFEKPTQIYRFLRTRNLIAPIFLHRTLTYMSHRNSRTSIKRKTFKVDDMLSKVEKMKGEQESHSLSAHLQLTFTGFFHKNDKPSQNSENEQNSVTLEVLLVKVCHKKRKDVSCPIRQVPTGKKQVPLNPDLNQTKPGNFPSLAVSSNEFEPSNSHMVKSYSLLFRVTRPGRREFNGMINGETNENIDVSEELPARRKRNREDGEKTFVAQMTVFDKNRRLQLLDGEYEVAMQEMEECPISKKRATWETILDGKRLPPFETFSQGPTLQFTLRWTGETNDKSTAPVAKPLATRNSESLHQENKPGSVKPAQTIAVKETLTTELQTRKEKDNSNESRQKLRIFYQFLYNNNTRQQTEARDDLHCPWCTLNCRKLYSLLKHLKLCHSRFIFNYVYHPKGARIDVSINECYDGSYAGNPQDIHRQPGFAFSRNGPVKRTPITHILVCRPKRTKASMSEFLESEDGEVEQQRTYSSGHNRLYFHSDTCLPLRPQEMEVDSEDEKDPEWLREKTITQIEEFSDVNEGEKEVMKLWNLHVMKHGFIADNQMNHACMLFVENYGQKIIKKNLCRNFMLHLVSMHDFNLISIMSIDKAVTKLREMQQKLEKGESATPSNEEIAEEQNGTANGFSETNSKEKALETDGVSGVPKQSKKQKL

[9] = system: HDAC3; experiment: HDAC3 enzyme activity in nuclear extracts of LLC tumors of treated mice; conditions: LLC tumor grown in vivo; first value of the pair HDAC3 and HDAC4; SAHA 25 mg/kg
Description: as §3, §4, §5, §6, §7, §8

`CCNC(=O)CCC(NC(=O)c1cc2cc([N+](=O)[O-])ccc2oc1=O)C(=O)OCC` (stereo in doubt) [Compound If, (R)-2-(6-nitro-2-oxo-2H-benzopyran-3-carboxamido)-5-ethylamino-5-oxo-pentanoic acid ethyl ester] was tested, and the IC50 [1] was < 60 µM.
In the case of `CCNC(=O)CC[C@@H](NC(=O)c1cc2cc(Br)cc(Br)c2oc1=O)C(=O)OCC` [Compound Ih, (R)-2-(6,8-dibromo-2-oxo-2H-benzopyran-3-carboxamido)-5-ethylamino-5-oxo-pentanoic ethyl ester], the IC50 [2] is reported as < 65 µM, the IC50 [3] is reported as < 100 µM and the IC50 [1] is reported as < 100 µM. The IC50 [4] was < 100 µM, the IC50 [5] was < 50 µM and the IC50 [6] was < 100 µM.
`CCNC(=O)CCC(NC(=O)c1cc2ccccc2oc1=O)C(=O)OC` (stereo not drawn) [Compound Ia, methyl 5-ethylamino-5-oxo-2-(2-oxo-2H-benzopyran-3-carboxamido)pentanoate] was tested, and the “decrease of HDAC4 enzyme activity/inhibition rate” value [7] was 52%*(LLC)-, the IC50 [1] was < 125 µM and the “decrease of EZH2 enzyme activity/inhibition rate” value [8] was 52%(LLC)-. For the same compound, the “decrease of HDAC3 enzyme activity/inhibition rate” value [9] was 55%* and.
With `CCNC(=O)CC[C@@H](NC(=O)c1cc2cc(Cl)ccc2oc1=O)C(=O)OCC` [Compound Ic, (R)-2-(6-CI-2-oxo-2H-benzopyran-3-carboxamido)-5-ethylamino-5-oxo-pentanoic acid ethyl ester] the IC50 [1] was < 100 µM.
With `CCNC(=O)CCC(NC(=O)c1cc2ccccc2oc1=O)C(=O)OCC` (stereo not drawn) [Compound Ib, ethyl 5-ethylamino-5-oxo-2-(2-oxo-2H-benzopyran-3-carboxamido)pentanoate] the IC50 [1] was < 120 µM.
In the case of `CCNC(=O)CCC(NC(=O)c1cc2cc(F)ccc2oc1=O)C(=O)OCC` (stereo in doubt) [Compound Ie, (R)-2-(6-F-2-oxo-2H-benzopyran-3-carboxamido)-5-ethylamino-5-oxo-pentanoic acid ethyl ester], the IC50 [1] is reported as < 60 µM.
With `CCNC(=O)CC[C@@H](NC(=O)c1cc2cc(Cl)cc(Cl)c2oc1=O)C(=O)OCC` [Compound Ig, (R)-2-(6,8-dichloro-2-oxo-2H-benzopyran-3-carboxamido)-5-ethylamino-5-oxo-pentanoic ethyl ester] the IC50 [2] was < 65 µM, the IC50 [3] was < 100 µM and the IC50 [1] was < 100 µM. For the same compound, the IC50 [4] was < 100 µM, the IC50 [5] was < 50 µM and the IC50 [6] was < 100 µM.
With `CCNC(=O)CC[C@@H](NC(=O)c1cc2cc(Br)ccc2oc1=O)C(=O)OCC` [Compound Id, (R)-2-(6-Br-2-oxo-2H-benzopyran-3-carboxamido)-5-ethylamino-5-oxo-pentanoic acid ethyl ester] the IC50 [1] was < 80 µM.
